Experimental data from patent publication US20250127937A1, “FAP INHIBITOR” (UNIVERSITÄT HEIDELBERG, priority 2018, published 2025).
Where two headings read alike, the source gives them in different places.

Legend:
human FAP-α = human FAP-α (Homo sapiens (Human), UniProt Q12884); test: Competitive binding of radiolabeled compound to HT-1080-FAP cells against unlabeled compound
Protocol: Competition experiments were performed by simultaneous exposure to unlabeled (10^−5 M to 10^−9M) and radiolabeled compound for 60 min. […] For internalization experiments, surface bound activity was removed by incubating the cells with 1 M glycine-HCl buffer for 10 min. The radioactivity was measured using a γ-counter, normalized to 1 mio cells and calculated as percentage of applied dose (% ID).
The medium was replaced by 1 mL fresh medium without fetal calf serum. […] Competition experiments were performed by simultaneous exposure to unlabeled (10^−5 M to 10^−9 M) and radiolabeled compound for 60 min. […] In all experiments, the cells were washed with 1 mL phosphate-buffered saline pH 7.4 for 2 times and subsequently lysed with 1.4 ml lysis buffer (0.3 M NaOH, 0.2% SDS). Radioactivity was determined in a γ-counter (Cobra II, Packard), normalized to 1 mio cells and calculated as percentage of the applied dose (% ID). Each experiment was performed 3 times, and 3 repetitions per independent experiment were acquired.

human CD26 = human CD26 (Homo sapiens (Human), UniProt P27487); test: Radioligand binding to CD26 expressing cells (HEK-CD26); conditions: 60 min incubation
Sequence of human CD26 (P27487 whole entry): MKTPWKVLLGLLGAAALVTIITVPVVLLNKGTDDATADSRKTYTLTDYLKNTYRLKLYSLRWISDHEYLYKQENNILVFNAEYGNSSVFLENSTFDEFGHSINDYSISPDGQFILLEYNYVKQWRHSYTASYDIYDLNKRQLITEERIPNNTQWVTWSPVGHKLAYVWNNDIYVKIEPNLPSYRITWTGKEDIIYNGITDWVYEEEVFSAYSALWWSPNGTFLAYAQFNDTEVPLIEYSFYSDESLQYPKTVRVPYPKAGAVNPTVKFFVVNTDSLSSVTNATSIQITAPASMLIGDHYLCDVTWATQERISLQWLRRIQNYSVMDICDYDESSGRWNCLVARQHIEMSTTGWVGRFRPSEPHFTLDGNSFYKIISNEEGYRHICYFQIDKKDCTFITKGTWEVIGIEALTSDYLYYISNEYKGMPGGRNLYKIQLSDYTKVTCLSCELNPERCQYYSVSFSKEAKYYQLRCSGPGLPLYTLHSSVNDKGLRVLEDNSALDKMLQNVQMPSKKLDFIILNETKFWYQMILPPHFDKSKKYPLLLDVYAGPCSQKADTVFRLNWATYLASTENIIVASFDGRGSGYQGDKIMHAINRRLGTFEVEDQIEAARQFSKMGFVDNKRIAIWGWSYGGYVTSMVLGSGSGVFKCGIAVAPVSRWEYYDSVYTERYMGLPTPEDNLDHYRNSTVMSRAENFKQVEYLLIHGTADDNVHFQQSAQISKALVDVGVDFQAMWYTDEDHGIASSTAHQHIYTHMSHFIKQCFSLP
Protocol: (§1) In vitro binding studies were performed using the human tumor cell lines BxPC3, Capan-2, MCF-7 (purchased from Sigma Aldrich Chemie GmbH) and SK-LMS-1 (purchased from ATCC) as well as stably transfected FAP-cell lines HT-1080-FAP, HEK-muFAP and the CD26 expressing cell line HEK-CD26 (obtained from Stefan Bauer, NCT Heidelberg). All cells were cultivated in Dulbecco's modified Eagle's medium (DMEM) containing 10% fetal calf serum at 37° C./5% carbon dioxide. For fluorescence internalization experiments, cells were seeded on coverslips and stained with FAPI-02-Atto488 and DAPI for cell nucleus staining. Images were acquired on a laser scanning confocal microscope using a 63× oil immersion objective.
(§2) For radioligand binding studies, cells were seeded in 6-well plates and cultivated for 48 h to a final confluence of approx. 80-90% (1.2-2 mio cells/well). The medium was replaced by 1 mL fresh medium without fetal calf serum. The radiolabeled compound was added to the cell culture and incubated for different time intervals ranging from 10 min to 24 h. Competition experiments were performed by simultaneous exposure to unlabeled (10^−5 M to 10^−9 M) and radiolabeled compound for 60 min. […] Radioactivity was determined in a γ-counter (Cobra II, Packard), normalized to 1 mio cells and calculated as percentage of the applied dose (% ID). […]

HT-1080-FAP cells [1] = test: Radioligand binding and internalization in HT-1080-FAP cells; type: cell-based, human
Protocol: (§3) Radioligand binding studies were performed using HT-1080-FAP cells. The radiolabeled compound was added to the cell culture and incubated for different time intervals ranging from 10 min to 24 h. Competition experiments were performed by simultaneous exposure to unlabeled (10^−5 M to 10^−9M) and radiolabeled compound for 60 min. For efflux experiments, radioactive medium was removed after incubation for 60 min and replaced by non-radioactive medium for time intervals ranging from 1 to 24 h. For internalization experiments, surface bound activity was removed by incubating the cells with 1 M glycine-HCl buffer for 10 min. The radioactivity was measured using a γ-counter, normalized to 1 mio cells and calculated as percentage of applied dose (% ID).
(§4) For radioligand binding studies, cells were seeded in 6-well plates and cultivated for 48 h to a final confluence of approx. 80-90% (1.2-2 mio cells/well). The medium was replaced by 1 mL fresh medium without fetal calf serum. The radiolabeled compound was added to the cell culture and incubated for different time intervals ranging from 10 min to 24 h. Competition experiments were performed by simultaneous exposure to unlabeled (10^−5 M to 10^−9 M) and radiolabeled compound for 60 min. For efflux experiments, radioactive medium was removed after incubation for 60 min and replaced by non-radioactive medium for time intervals ranging from 1 to 24 h. In all experiments, the cells were washed with 1 mL phosphate-buffered saline pH 7.4 for 2 times and subsequently lysed with 1.4 ml lysis buffer (0.3 M NaOH, 0.2% SDS). Radioactivity was determined in a γ-counter (Cobra II, Packard), normalized to 1 mio cells and calculated as percentage of the applied dose (% ID). Each experiment was performed 3 times, and 3 repetitions per independent experiment were acquired.
For internalization experiments the cells were incubated with the radiolabeled compound for 60 min at 37° C. and 4° C. Cellular uptake was terminated by removing medium from the cells and washing 2 times with 1 mL PBS. Subsequently, cells were incubated with 1 mL of glycine-HCl (1 Min PBS, pH 2.2) for 10 min at room temperature to remove the surface bound activity. The cells were washed with 2 mL of ice-cold PBS and lysed with 1.4 mL of lysis buffer to determine the internalized fraction. For the cells incubated at 4° C., all washing and elution steps were carried out using ice-cold buffers. The radioactivity was measured using a γ-counter, normalized to 1 mio cells and calculated as percentage of applied dose (% ID).

HT-1080-FAP cells [2] = test: Efflux experiments in HT-1080-FAP cells; type: cell-based, human; conditions: after 24 h in compound-free medium
Protocol: as §3, §4

[3] = system: FAP-negative cancer cell lines; test: Radioligand binding to FAP-negative human cancer cell lines; type: cell-based; conditions: I-125 labeled, 60 min
Protocol: as §1, §2

[4] = system: HT-1080-FAP and HEK-muFAP cells; test: Fluorescence laser scanning microscopy of internalization, FAP-α expressing cells; type: cell-based; conditions: fluorescently labeled, 1 to 2 hrs
Protocol: as §1
(§5) For internalization experiments HT-1080-FAP and HEK muFAP cells were seeded on uncoated coverslips in a 24-well plate and cultivated in culture medium containing 10% fetal calf serum to a final confluence of approx. 80-90%. The medium was removed and cells were washed with 0.5 mL PBS pH 7.4 for 2 times. FAPI-02-Atto488 (20 μM in DMEM) was added to the cells and incubated for 2 hrs at 37° C. Cells were washed with 0.5 mL PBS pH 7.4 for 3 times and fixed with paraformaldehyde (2% in PBS) for 15 min. The overgrown coverslips were placed on microscope slides using mounting medium containing DAPI for cell nucleus staining (Fluoroshield, Sigma-Aldrich). […]

HEK-CD26 cells = test: Fluorescence laser scanning microscopy of internalization, FAP-α negative cells; type: cell-based; conditions: fluorescently labeled, 1 to 2 hrs
Protocol: as §1, §5

[5] = system: HT-1080-FAP tumor xenografts; test: Small-animal imaging (PET, scintigraphy) in HT-1080-FAP tumor bearing mice; type: in vivo, mouse; conditions: F-18 labeled (nicotinamide or AlF-18 NOTA), up to 140 min after i.v.
Protocol: For in vivo experiments, 8 week old BALB/c nu/nu mice (Charles River) were subcutaneously inoculated into the right trunk with 5×10^6 with HT-1080-FAP, Capan-2 or SK-LMS-1 cells, respectively. When the size of the tumor reached approximately 1 cm^3, the radiolabeled compound was injected via the tail vein (˜10 MBq for small-animal PET imaging; ˜1 MBq for organ distribution). […] Images were reconstructed iteratively using the 3D-OSEM+MAP method and were converted to standardized uptake value (SUV) images. Quantification was done using a ROI technique and expressed as SUV mean. For organ distribution of Lu-177 labeled compound ([…]), the animals (n=3 for each time point) were sacrificed after indicated time points (from 30 min to 24 h). The distributed radioactivity was measured in all dissected organs and in blood using a γ-counter (Cobra Autogamma, Packard). The values are expressed as percentage of injected dose per gram of tissue (% ID/g).

[6] = system: HT-1080-FAP tumor xenografts; test: Organ distribution ex vivo in HT-1080-FAP tumor bearing nude mice; parameters: species or system mouse; conditions: AlF-18-labeled, i.v.
[7] = I-125 labeled, 10 min incubation

Sequence of human FAP-α (Q12884 whole entry): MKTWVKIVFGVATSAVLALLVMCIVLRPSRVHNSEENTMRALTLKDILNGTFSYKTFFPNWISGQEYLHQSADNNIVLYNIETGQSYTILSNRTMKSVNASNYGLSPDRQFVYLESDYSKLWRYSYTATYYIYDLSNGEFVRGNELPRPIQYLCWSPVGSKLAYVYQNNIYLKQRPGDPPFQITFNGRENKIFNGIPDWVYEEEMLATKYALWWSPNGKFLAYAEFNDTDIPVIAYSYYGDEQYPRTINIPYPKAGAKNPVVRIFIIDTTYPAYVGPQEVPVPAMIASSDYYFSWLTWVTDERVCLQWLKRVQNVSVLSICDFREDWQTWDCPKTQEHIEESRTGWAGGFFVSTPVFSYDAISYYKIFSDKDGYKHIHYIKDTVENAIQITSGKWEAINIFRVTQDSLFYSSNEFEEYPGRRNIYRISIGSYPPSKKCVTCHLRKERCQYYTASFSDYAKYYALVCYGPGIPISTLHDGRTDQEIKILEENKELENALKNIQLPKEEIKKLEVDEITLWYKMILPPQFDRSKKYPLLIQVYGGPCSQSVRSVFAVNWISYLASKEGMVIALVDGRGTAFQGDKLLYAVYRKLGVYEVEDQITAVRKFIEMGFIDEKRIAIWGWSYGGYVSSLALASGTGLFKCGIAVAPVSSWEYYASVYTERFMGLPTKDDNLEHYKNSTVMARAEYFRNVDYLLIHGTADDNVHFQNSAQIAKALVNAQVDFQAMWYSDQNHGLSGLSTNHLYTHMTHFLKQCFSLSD

N#C[C@@H]1CCCN1C(=O)CNC(=O)c1ccnc2cccc(I)c12 [FAPI-01]
IC50 (human FAP-α; radiolabeled FAPI-01 (I-125) / FAPI-02 (Lu-177), HT-1080-FAP cells, 60 min, read-out: IC50 human FAP-α): 39.4 nM | binding to CD26 expressing cells (% ID) (human CD26): 0.05±0.01% | activity remaining after 24 h of incubation relative to initial radioactivity (HT-1080-FAP cells [1]; 24 h incubation, FAPI-01 compared to binding after 10 min): 5% | proportion of total bound fraction located intracellularly (HT-1080-FAP cells [1]; [7]): 95% | total bound fraction (HT-1080-FAP cells [1]; [7]): 19.70±0.28% | internalized proportion of total (HT-1080-FAP cells [1]; I-125 labeled, 4 h incubation): 94% | total bound fraction (HT-1080-FAP cells [1]; I-125 labeled, 4 h incubation): 17.00±0.40% | radioactivity (HT-1080-FAP cells [1]; I-125 labeled, after 24 h, 4° C. (reduced deiodinase activity)): 26.66±1.59% | intracellular radioactivity (HT-1080-FAP cells [1]; I-125 labeled, after 24 h, 37° C.): 3.25±0.29% | retained radioactivity (efflux) (HT-1080-FAP cells [2]): 1.1 % ID | retention of the originally accumulated radioactivity (efflux) (HT-1080-FAP cells [2]): 1.1% | binding to FAP-negative cancer cell lines [3]: no significant binding

CN(CCCC(=O)N1CCN(CCCOc2ccc3nccc(C(=O)CCCN4CCC[C@H]4C#N)c3c2)CC1)Cc1ccccc1-c1c2ccc(=N)cc-2oc2c(S(=O)(=O)O)c(N)ccc12 [FAPI-02-Atto488]
internalization into FAP-α expressing cells [4]: completely internalized | uptake in FAP-α negative HEK-CD26 cells (HEK-CD26 cells): no uptake is detectable

N#C[C@@H]1CC(F)(F)CN1C(=O)CNC(=O)c1ccnc2ccc(OCCCN3CCN(C(=O)[C@H](CC(C(=O)O)C(=O)O)NC(=O)CN4CCN(CC(=O)O)CCN(CC(=O)O)CC4)CC3)cc12 [FAPI-75]
IC50 (human FAP-α; F-18-FAPI derivatives, table title says EC50, head says IC50, read-out: IC50): 2.9 nM | PET imaging findings [5]: high target specificity and fast clearance | tumor uptake in organ distribution [6]: high tumor uptake
